Assay results as given in patent US9693997B2, “Antiviral compounds” (priority 2013, dated 2017).
Structures can show the parent of a compound that is named as a salt.

How the values were obtained:
[1] = system: Pseudotyped HCV GT1b particles (HCVpp), entry into Huh7-high CD81 cells; test: microbe, parasite or virus in culture; format: cell-based, HCV GT1b Con1 strain; settings: Hepatitis C virus, GT1B, 72 h, read-out: HCVpp GT-1b (EC50, μM)
[2] = system: pseudotyped VSV G particles (VSVpp) in Huh7-high CD81 cells; test: microbe, parasite or virus in culture; format: cell-based, vesicular stomatitis virus; settings: Vesicular stomatitis virus, 72 h, read-out: VSVpp (EC50, μM)

Compound: CS(=O)(=O)Nc1ccc(-c2c(Cl)cc(Nc3n[nH]c(N)n3)cc2Cl)c(F)c1 [Compound 28, N-[4′-(5-Amino-1H-[1,2,4]triazol-3-ylamino)-2′,6′-dichloro-2-fluoro-biphenyl-4-yl]-methanesulfonamide]
- EC50 [1]: 0.083 µM
- EC50 [2]: 4.02 µM

Compound: Nc1nc(Nc2cc(Cl)c(-c3ccc(S(=O)(=O)C4CCCNC4)cc3)c(C(F)(F)F)c2)n[nH]1 (stereo not shown) [Compound 29, N*3*-[2-Chloro-4′-(piperidine-3-sulfonyl)-6-trifluoromethyl-biphenyl-4-yl]-1H-[1,2,4]triazole-3,5-diamine; hydrochloride]
- EC50 [1]: 0.09 µM
- EC50 [2]: 3.53 µM

Compound: CS(=O)(=O)c1ccc(-c2c(F)cc(Nc3n[nH]c(N)n3)cc2Cl)cc1 [Compound 30, N*3*-(2-Chloro-6-fluoro-4′-methanesulfonyl-biphenyl-4-yl)-1H-[1,2,4]triazole-3,5-diamine]
- EC50 [1]: 0.107 µM
- EC50 [2]: 1.53 µM

Compound: Nc1nc(Nc2cc(Cl)c(-c3ccc(S(=O)(=O)C[C@@H]4CCCN4)cc3)c(C(F)(F)F)c2)n[nH]1 [Compound 35, N*3*-[2-Chloro-4′-((S)-1-pyrrolidin-2-ylmethanesulfonyl)-6-trifluoromethyl-biphenyl-4-yl]-1H-[1,2,4]triazole-3,5-diamine; hydrochloride]
- EC50 [1]: 0.127 µM
- EC50 [2]: 4.79 µM

Compound: Nc1nc(Nc2cc(Cl)c(-c3ccc(S(=O)(=O)N4CCOCC4)cc3)c(C(F)(F)F)c2)n[nH]1 [Compound 36, N*3*-[2-Chloro-4′-(morpholine-4-sulfonyl)-6-trifluoromethyl-biphenyl-4-yl]-1H-[1,2,4]triazole-3,5-diamine]
- EC50 [1]: 0.096 µM
- EC50 [2]: 14.2 µM

Compound: Nc1nc(Nc2cc(Cl)c(-c3ccc(OCC4CNC4)cc3)c(C(F)(F)F)c2)n[nH]1 [Compound 37, N*3*-[4′-(Azetidin-3-ylmethoxy)-2-chloro-6-trifluoromethyl-biphenyl-4-yl]-1H-[1,2,4]triazole-3,5-diamine; hydrochloride]
- EC50 [1]: 0.107 µM
- EC50 [2]: > 10 µM

Compound: CS(=O)(=O)NCCc1ccc(-c2c(Cl)cc(Nc3n[nH]c(N)n3)cc2C(F)(F)F)cc1 [Compound 38, N-{2-[4′-(5-Amino-1H-[1,2,4]triazol-3-ylamino)-2′-chloro-6′-trifluoromethyl-biphenyl-4-yl]-ethyl}-methanesulfonamide]
- EC50 [1]: 0.087 µM
- EC50 [2]: 7.01 µM

Compound: Nc1nc(Nc2cc(Cl)c(-c3ccc(S(=O)(=O)CC4CCNCC4)cc3)c(C(F)(F)F)c2)n[nH]1 [Compound 40, N*3*-[2-Chloro-4′-(piperidin-4-ylmethanesulfonyl)-6-trifluoromethyl-biphenyl-4-yl]-1H-[1,2,4]triazole-3,5-diamine; hydrochloride]
- EC50 [1]: 0.073 µM
- EC50 [2]: 31.7 µM

Compound: Nc1nc(Nc2cc(Cl)c(-c3cccc(OC4CCNCC4)c3)c(C(F)(F)F)c2)n[nH]1 [Compound 41, N*3*-[2-Chloro-3′-(piperidin-4-yloxy)-6-trifluoromethyl-biphenyl-4-yl]-1H-[1,2,4]triazole-3,5-diamine; hydrochloride]
- EC50 [1]: 0.166 µM
- EC50 [2]: > 10 µM

Compound: CS(=O)(=O)n1ccc2cc(-c3c(Cl)cc(Nc4n[nH]c(N)n4)cc3Cl)ccc21 [Compound 42, N*3*-[3,5-Dichloro-4-(1-methanesulfonyl-1H-indol-5-yl)-phenyl]-1H-[1,2,4]triazole-3,5-diamine]
- EC50 [1]: 0.212 µM
- EC50 [2]: 2.27 µM

Compound: Nc1nc(Nc2cc(Cl)c(-c3ccc(N4CCCC4=O)cc3)c(Cl)c2)n[nH]1 [Compound 43, 1-[4′-(5-Amino-1H-[1,2,4]triazol-3-ylamino)-2′,6′-dichloro-biphenyl-4-yl]-pyrrolidin-2-one]
- EC50 [1]: 0.169 µM
- EC50 [2]: 15.4 µM

Compound: CS(=O)(=O)N1CCOc2ccc(-c3c(Cl)cc(Nc4n[nH]c(N)n4)cc3C(F)(F)F)cc21 [Compound 44, N*3*-[3-Chloro-4-(4-methanesulfonyl-3,4-dihydro-2H-benzo[1,4]oxazin-6-yl)-5-trifluoromethyl-phenyl]-1H-[1,2,4]triazole-3,5-diamine]
- EC50 [1]: 0.236 µM
- EC50 [2]: 4.92 µM

Compound: Nc1nc(Nc2cc(Cl)c(-c3ccc(S(=O)(=O)N4CCS(=O)(=O)CC4)cc3)c(C(F)(F)F)c2)n[nH]1 [Compound 45, N*3*-[2-Chloro-4′-(1,1-dioxo-1lambda*6*-thiomorpholine-4-sulfonyl)-6-trifluoromethyl-biphenyl-4-yl]-1H-[1,2,4]triazole-3,5-diamine]
- EC50 [1]: 0.101 µM
- EC50 [2]: > 10 µM

Compound: CS(=O)(=O)Nc1ccc(-c2c(Cl)cc(Nc3n[nH]c(N)n3)cc2Cl)cc1F [Compound 46, N-[4′-(5-Amino-1H-[1,2,4]triazol-3-ylamino)-2′,6′-dichloro-3-fluoro-biphenyl-4-yl]-methanesulfonamide]
- EC50 [1]: 0.414 µM
- EC50 [2]: > 10 µM

Compound: Nc1nc(Nc2cc(Cl)c(-c3ccc4c(c3)NC(=O)CO4)c(C(F)(F)F)c2)n[nH]1 [Compound 47, 6-[4-(5-Amino-1H-[1,2,4]triazol-3-ylamino)-2-chloro-6-trifluoromethyl-phenyl]-4H-benzo[1,4]oxazin-3-one]
- EC50 [1]: 0.544 µM
- EC50 [2]: 0.82 µM

Compound: NCCCCOc1ccc(-c2c(Cl)cc(Nc3n[nH]c(N)n3)cc2Cl)cc1 [Compound 49, N*3*-[4′-(4-Amino-butoxy)-2,6-dichloro-biphenyl-4-yl]-1H-[1,2,4]triazole-3,5-diamine; trifluoro-acetate]
- EC50 [1]: 0.455 µM
- EC50 [2]: > 10 µM

Compound: Nc1ccc(-c2c(Cl)cc(Nc3n[nH]c(N)n3)cc2Cl)cc1 [Compound 50, N*3*-(4′-Amino-2,6-dichloro-biphenyl-4-yl)-1H-[1,2,4]triazole-3,5-diamine]
- EC50 [1]: 0.689 µM
- EC50 [2]: > 10 µM

Compound: Nc1nc(Nc2cc(Cl)c(-c3ccc(S(=O)(=O)N4CCC[C@H]4C(=O)O)cc3)c(C(F)(F)F)c2)n[nH]1 [Compound 51, (S)-1-[4′-(5-Amino-1H-[1,2,4]triazol-3-ylamino)-2′-chloro-6′-trifluoromethyl-biphenyl-4-sulfonyl]-pyrrolidine-2-carboxylic acid]
- EC50 [1]: 0.678 µM
- EC50 [2]: > 10 µM

Compound: CC1(C)CS(=O)(=O)c2cc(-c3c(Cl)cc(Nc4n[nH]c(N)n4)cc3Cl)ccc2O1 [Compound 52, N*3*-[3,5-Dichloro-4-(2,2-dimethyl-4,4-dioxo-3,4-dihydro-2H-4lambda*6*-benzo[1,4]oxathiin-6-yl)-phenyl]-1H-[1,2,4]triazole-3,5-diamine]
- EC50 [1]: 0.64 µM
- EC50 [2]: > 10 µM

Compound: CCCCC(=O)Nc1ccc(-c2ccc(Nc3n[nH]c(N)n3)cc2)cc1 [Compound 53, Pentanoic acid [4′-(5-amino-1H-[1,2,4]triazol-3-ylamino)-biphenyl-4-yl]-amide]
- EC50 [1]: 5.61 µM
- EC50 [2]: 4.38 µM

Compound: CC(C)(C)CCN1CCCC(CS(=O)(=O)c2ccc(-c3c(Cl)cc(Nc4n[nH]c(N)n4)cc3C(F)(F)F)cc2)C1 (stereo not shown) [Compound 56, N*3*-{2-Chloro-4′-[1-(3,3-dimethyl-butyl)-piperidin-3-ylmethanesulfonyl]-6-trifluoromethyl-biphenyl-4-yl}-1H-[1,2,4]triazole-3,5-diamine; hydrochloride]
- EC50 [1]: 0.046 µM
- EC50 [2]: 3.74 µM

Compound: CC(C)(C)CCN1CCC(CS(=O)(=O)c2ccc(-c3c(Cl)cc(Nc4n[nH]c(N)n4)cc3C(F)(F)F)cc2)CC1 [Compound 57, N*3*-{2-Chloro-4′-[1-(3,3-dimethyl-butyl)-piperidin-4-ylmethanesulfonyl]-6-trifluoromethyl-biphenyl-4-yl}-1H-[1,2,4]triazole-3,5-diamine; hydrochloride]
- EC50 [1]: 0.049 µM
- EC50 [2]: 2.45 µM

Compound: CC(C)(C)NCc1ccc(-c2c(Cl)cc(Nc3n[nH]c(N)n3)cc2C(F)(F)F)cc1 [Compound 58, N*3*-[4′-(tert-Butylamino-methyl)-2-chloro-6-trifluoromethyl-biphenyl-4-yl]-1H-[1,2,4]triazole-3,5-diamine; hydrochloride]
- EC50 [1]: 0.086 µM
- EC50 [2]: 4.56 µM

Compound: CC(C)(C)OC(=O)N1CC(S(=O)(=O)c2ccc(-c3c(Cl)cc(Nc4n[nH]c(N)n4)cc3C(F)(F)F)cc2)C1 [Compound 59, 3-[4′-(5-Amino-1H-[1,2,4]triazol-3-ylamino)-6′-chloro-2′-trifluoromethyl-biphenyl-4-sulfonyl]-azetidine-1-carboxylic acid tert-butyl ester]
- EC50 [1]: 0.008 µM
- EC50 [2]: 5.78 µM

Compound: CC1(NS(=O)(=O)c2ccc(-c3c(Cl)cc(Nc4n[nH]c(N)n4)cc3C(F)(F)F)cc2)COC1 [Compound 60, 4′-(5-Amino-1H-[1,2,4]triazol-3-ylamino)-6′-chloro-2′-trifluoromethyl-biphenyl-4-sulfonic acid (3-methyl-oxetan-3-yl)-amide]
- EC50 [1]: 0.014 µM
- EC50 [2]: > 10 µM

Compound: CC(C)CCS(=O)(=O)c1ccc(-c2c(Cl)cc(Nc3n[nH]c(N)n3)cc2C(F)(F)F)cc1 [Compound 61, N*3*-[6-Chloro-4′-(3-methyl-butane-1-sulfonyl)-2-trifluoromethyl-biphenyl-4-yl]-1H-1,2,4-triazole-3,5-diamine]
- EC50 [1]: 0.013 µM
- EC50 [2]: > 10 µM

Compound: Nc1nc(Nc2cc(Cl)c(-c3ccc(S(=O)(=O)N4CCC(F)(F)C4)cc3)c(C(F)(F)F)c2)n[nH]1 [Compound 62, N*3*-[6-Chloro-4′-(3,3-difluoro-pyrrolidine-1-sulfonyl)-2-trifluoromethyl-biphenyl-4-yl]-1H-[1,2,4]triazole-3,5-diamine]
- EC50 [1]: 0.02 µM
- EC50 [2]: > 10 µM

Compound: CC1(O)CN(S(=O)(=O)c2ccc(-c3c(Cl)cc(Nc4n[nH]c(N)n4)cc3C(F)(F)F)cc2)C1 [Compound 63, 1-[4′-(5-Amino-1H-[1,2,4]triazol-3-ylamino)-6′-chloro-2′-trifluoromethyl-biphenyl-4-sulfonyl]-3-methyl-azetidin-3-ol]
- EC50 [1]: 0.018 µM
- EC50 [2]: 3.86 µM

Compound: Nc1nc(Nc2cc(Cl)c(-c3ccc(S(=O)(=O)CC4CC4)cc3)c(C(F)(F)F)c2)n[nH]1 [Compound 64, N*3*-(6-Chloro-4′-cyclopropylmethanesulfonyl-2-trifluoromethyl-biphenyl-4-yl)-1H-1,2,4-triazole-3,5-diamine]
- EC50 [1]: 0.023 µM
- EC50 [2]: 9.54 µM
